Two molecules from PMC10041534, “Development of Fluorescent 4-[4-(3H-Spiro[isobenzofuran-1,4′-piperidin]-1′-yl)butyl]indolyl Derivatives as High-Affinity Probes to Enable the Study of σ Receptors via Fluorescence-Based Techniques” (Journal of Medicinal Chemistry, 2023) can be followed below.

The target of data set [1] is T1, σ2 receptor (Homo sapiens, UniProt Q5BJF2). Kind of data set: Flow cytometry studies in MCF7 and MCF7KO cells. The data set is classed as cell-based. Further details: This cell line was selected on the basis of its high σ2 receptor expression levels; endogenous in cells; host or cells: MCF7 (and MCF7KO, partial TMEM97 knockdown by shRNA). The settings on record: for accumulation (mean fluorescence intensity) in MCF7 and MCF7KO cells: 10 nM-10 μM, 45 min, σ1 masked with 10 μM (+)-pentazocine; for signal in MCF7KO cells compared with MCF7 cells: flow cytometry, σ2 receptor partially silenced. The procedure:
Subsequently, the cells were harvested by trypsinization and resuspended in 250 μL of FACS-PBS. The fluorescence intensity was measured by flow cytometry using a BD LSRFortessaTM X-20 cell analyzer (Becton Dickinson, Palo Alto, CA). For this, in total 20000 cells per sample were evaluated. The results were analyzed and quantified using BD FACSDivaTM software.
Background: A flow cytometer gives signals particle by particle.

The target in data set [2] is T1, σ2 receptor. Put plainly: Flow cytometry saturation binding assay in MCF7 cells. The settings on record: σ1 masked by (+)-pentazocine.
Protocol: Similarly, 2 × 10^5 MCF7 cells/well were seeded in a 12-well plate and allowed to recover for 24 h at 37 °C.
At the end of the incubation periods, cells were washed twice with PBS, detached with 200 mL of Cell Dissociation Solution (Sigma Chemical Co.) for 10 min at 37 °C, centrifuged at 13000g for 5 min, and resuspended in 500 mL of PBS. The fluorescence was recorded using a Bio-Guava easyCyte 5 Flow Cytometry System (Millipore, Billerica, MA), with a 530 nm band-pass filter. For each analysis, 50000 events were collected and analyzed with the InCyte software (Millipore).
Data set [3] has as its target T2, σ2 receptor (Rattus norvegicus, UniProt Q5U3Y7).
T2 construct: from tissue; host or cells: rat liver (Wistar Hannover rats, Envigo)
T2 sequence (Q5U3Y7 1-176): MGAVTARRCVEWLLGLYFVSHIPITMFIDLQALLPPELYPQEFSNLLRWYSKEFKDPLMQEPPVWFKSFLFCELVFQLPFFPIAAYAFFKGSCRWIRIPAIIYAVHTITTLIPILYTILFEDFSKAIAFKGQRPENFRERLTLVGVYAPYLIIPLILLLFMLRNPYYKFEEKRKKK
Kind of data set: σ2 receptor radioligand binding assay with [3H]DTG, rat liver membranes. The settings on record: for Ki: [3H]DTG with 1 μM (+)-pentazocine, rat liver membranes, mean of at least two experiments in duplicate, read-out: Ki ± SEM σ2. On the procedure: (§1) All of the procedures for the binding assays were previously described. σ1 and σ2 receptor binding assays were carried out according to the literature.[25] […] Incubations were stopped by addition of 1 mL of ice-cold buffer [50 mM TRIS (pH 8.0)], and then the suspension was filtered through GF/B presoaked in 0.3% polyethylenimine (PEI) for at least 60 min prior to use. The filters were washed twice with 1 mL of ice-cold buffer. […] Incubations were stopped by addition of 1 mL of ice-cold buffer [50 mM TRIS (pH 8.0)], and then the suspension was filtered through GF/B presoaked in 0.5% polyethylenimine (PEI) for at least 60 min prior to use. The filters were washed twice with 1 mL of ice-cold buffer. […] Scatchard parameters (Kd and Bmax) and apparent inhibition constants (Ki) were determined by nonlinear curve fitting using GraphPad Prism (version 5.0).[64]

Data set [4] in a line: Fluorescence spectroscopy and quantum yield measurements. The data set is classed as physicochemical. The settings on record: CHCl3.
Data set [5] deals with MCF7 cells. Kind of data set: Live cell imaging in MCF7 cells. Type of data set: cell-based, human. The settings on record: live cell videos.
Data set [6] can be described thus: RP-HPLC degradation study in PBS buffer. Type of data set: physicochemical. The settings on record: 37 °C, RP-HPLC over 24 h. The procedure:
page 12: Figure S10. RP-HPLC degradation study in buffer of compounds 19 (A) and 29 (B). Compounds were dissolved in a solution of PBS with 5% of DMSO. Then the solution was divided in 4 vials, one was used to study t0 and the other three were incubated at 37 °C for 2h, 6h and 24 h, respectively. […]

Data set [7] has as its target T3, σ1 receptor (Homo sapiens, UniProt Q99720).
T3 construct: expressed in transfected cells
Put plainly: Flow cytometry studies in MCF7σ1 cells. Type of data set: cell-based.

The target in data set [8] is T1, σ2 receptor. Put plainly: Spinning disk confocal microscopy on living MCF7 cells. Type of data set: cell-based. Further details: This cell line was selected on the basis of its high σ2 receptor expression levels; endogenous in cells; host or cells: MCF7 (and MCF7KO, partial TMEM97 knockdown by shRNA). The settings on record: for subcellular localization in living MCF7 cells: 0.05 μM, 30 min; for mitochondrial localization upon co-treatment with nonfluorescent DTG: 20 μM DTG. On the procedure:
MCF7 cells (2.4 × 10^4 cells/well) were seeded on IBIDI slides (coated with polymers, Science Services) and incubated at 37 °C with 5% CO2 for 48 h. Afterward, ProlongLife (Invitrogen, catalog no. P36974) was added in a 1:100 dilution to the cells and incubated for 1 h. Subsequently, the medium was removed, and the cells were stained with 250 nM MitoTracker-Bodipy FL (Invitrogen, catalog no. P36974) in phenol red-free medium for 30 min at 37 °C with 5% CO2. […] In addition, Hoechst 33342 (0.05 μM) was added 15 min prior to measurement to counterstain for nuclei. Finally, z-stacks of the living cells were performed using an Olympus IXplore SpinSR spinning disk confocal microscope. In total, three pictures per spot were obtained. The Cy-5 intensities of the ligands based on the localization of the GFP- signal of the mitochondria were calculated by the commercially available software cellSens from Olympus. Statistical analysis was performed using GraphPad Prism (version 8).

For data set [9], the target named is T4, σ1 receptor (Cavia porcellus, UniProt Q60492).
T4 construct: from tissue; host or cells: guinea pig brain without cerebellum (male Dunkin guinea pigs, Envigo)
Put plainly: σ1 receptor radioligand binding assay with (+)-[3H]pentazocine, guinea pig brain membranes. The settings on record: mean of at least two experiments in duplicate, read-out: Ki ± SEM σ1. The procedure:
as §1

Data set [10] has as its system MCF7 cells. Kind of data set: Trypan blue assay. The data set is classed as cell-based, human. The settings on record: conditions of confocal microscopy, data not shown.
Data set [11] addresses T1, σ2 receptor. Kind of data set: Confocal microscopy, co-localization with σ2 receptor (TMEM97 ab) in fixed MCF7 cells. The data set is classed as cell-based. Further details: This cell line was selected on the basis of its high σ2 receptor expression levels; endogenous in cells; host or cells: MCF7 (and MCF7KO, partial TMEM97 knockdown by shRNA). The settings on record: 5 μM, 1 h. On the procedure:
Subsequently, the cells were treated with the indicated concentrations of 19 or 29 for 1 h at 37 °C. Then, the cells were washed once with PBS, harvested by trypsinization, and resuspended in 1 mL of PBS. Then, the cell preparation for confocal microscopy by using Cytospin was carried out as described by Koh et al.,[75] followed by cell fixation with 4% paraformaldehyde at room temperature for 30 min. For the staining of σ2 receptor expression, cells were permeabilized and blocked with 0.5% Triton X-100 and 1% BSA, respectively, in PBS for 30 min at room temperature followed by incubation of the primary TMEM97 antibody (diluted 1:200 in 1% BSA/0.3% Triton-PBS, Novusbio, catalog no. NBP1-30436) overnight at 4 °C in a wet chamber. The next day, the cells were washed three times with PBS and incubated with a 1:500 dilution of a secondary anti-rabbit AlexaFluor488-labeled antibody (Invitrogen, catalog no. A-11034) for 1 h at room temperature in a wet chamber. After being washed twice with PBS, the cells were incubated with a solution containing DAPI (2.5 μg/mL, D9542) for 15 min at room temperature, followed by three washes with PBS as well as ddH2O and embedding with Vectashield (Vectashield Antifade Mounting Media, Vector Laboratories, caalog no. H-1000-10). […]

The mark [12] stands for this setting: DTG (20 μM) as non-fluorescent σ2 reference ligand.
The mark [13] stands for this setting: compound 2 (10 μM) as non-fluorescent σ2 reference ligand.

One may read the Kd as the free concentration of one partner at which half of the binding sites on the other are occupied at equilibrium, for simple one-to-one binding. Lower therefore signals tighter binding. Broadly, the Ki is a dissociation constant, usually derived from enzyme kinetics or from competition with a known ligand.

T1 sequence (Q5BJF2 whole entry): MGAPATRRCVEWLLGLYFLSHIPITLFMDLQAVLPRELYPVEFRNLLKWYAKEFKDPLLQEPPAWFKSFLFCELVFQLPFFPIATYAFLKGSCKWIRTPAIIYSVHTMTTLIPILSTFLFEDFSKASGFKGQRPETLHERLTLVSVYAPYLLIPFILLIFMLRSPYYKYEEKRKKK
T3 sequence (Q99720 whole entry, species assumed): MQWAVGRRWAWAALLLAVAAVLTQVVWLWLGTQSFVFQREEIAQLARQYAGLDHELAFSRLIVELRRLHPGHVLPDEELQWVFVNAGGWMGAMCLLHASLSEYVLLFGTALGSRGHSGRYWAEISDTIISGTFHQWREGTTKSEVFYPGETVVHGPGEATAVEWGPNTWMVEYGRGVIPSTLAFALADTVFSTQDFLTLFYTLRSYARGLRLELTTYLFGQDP
T4 sequence (Q60492 whole entry): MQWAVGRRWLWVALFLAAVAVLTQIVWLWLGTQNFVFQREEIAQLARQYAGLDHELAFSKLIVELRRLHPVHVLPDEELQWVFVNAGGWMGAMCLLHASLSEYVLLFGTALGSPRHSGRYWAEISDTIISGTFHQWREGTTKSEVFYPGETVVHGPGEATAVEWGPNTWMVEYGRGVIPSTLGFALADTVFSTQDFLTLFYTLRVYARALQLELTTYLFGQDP

On to `C[N+]1=C(/C=C/C=C/C=C2\N(CCCCCC(=O)NCCCCCCn3cc(CCCCN4CCC5(CC4)OCc4ccccc45)c4ccccc43)c3ccccc3C2(C)C)C(C)(C)c2ccccc21.[I-]` [Compound 19, 2-{(1E,3E)-5-[(E)-1-{6-[(6-{3-[4-(3H-Spiro[isobenzofuran-1,4′-piperidin]-1′-yl)butyl]-1H-indol-1-yl}hexyl)amino]-6-oxohexyl}-3,3-dimethylindolin-2-ylidene]penta-1,3-dien-1-yl}-1,3,3-trimethyl-3H-indol-1-ium], for which, in data set [1], the “accumulation (mean fluorescence intensity) in MCF7 and MCF7KO cells” value is listed as “dose-dependent manner”; the “signal in MCF7KO cells compared with MCF7 cells” value was “visibly weaker”. In data set [2] (setting [12]), this molecule had a Kd of 13.6 nM. The affinity in data set [2] (setting [13]), expressed as Kd, was 19.3 nM. For the same molecule, the Ki in data set [3] was determined as 30.2 ± 3.5 nM. For the same molecule, in [4], the quantum yield worked out at 52.86%, the λem was found to be 678 nm and the λex was 657 nm. Further, the “entry into living MCF7 cells” value in data set [5] is “rapid entry”. Further, in data set [6], the stability entry was “stability of the two compounds was demonstrated”. In addition, the “uptake in MCF7σ1 cells upon administration of (+)-pentazocine” value in data set [7] (σ2 masked with 2 (10 μM), (+)-pentazocine 10 μM) is on record as “abated”. Besides, in data set [7] (σ2 receptor masked with 10 μM compound 2), the “fluorescent signal in MCF7σ1 cells” value is “dose-dependent increase”. Also, in data set [8], the “subcellular localization in living MCF7 cells” value is reported as “mitochondrial localization” and the “mitochondrial localization upon co-treatment with nonfluorescent DTG” value is reported as “significantly reduced”. In data set [9], the Ki came to 51.3 ± 3.2 nM. Besides, the cytotoxicity result in data set [10] is given as “neither 19 nor 29 was cytotoxic”. For the same molecule, in [11], the “subcellular localization versus σ2 receptor distribution (TMEM97ab)” value is “overlapped with the σ2 receptor distribution”.
Take `C[N+]1=C(/C=C/C=C/C=C2/N(CCCCCC(=O)Nc3ccc4ccn(CCCCN5CCC6(CC5)OCc5ccccc56)c4c3)c3ccccc3C2(C)C)C(C)(C)c2ccccc21.[I-]` [Compound 29, 2-[(1E,3E)-5-{(Z)-1-[6-({1-[4-(3H-Spiro[isobenzofuran-1,4′-piperidin]-1′-yl)butyl]-1H-indol-6-yl}amino)-6-oxohexyl]-3,3-dimethylindolin-2-ylidene}penta-1,3-dien-1-yl]-1,3,3-trimethyl-3H-indol-1-ium]: in data set [1], the “accumulation (mean fluorescence intensity) in MCF7 and MCF7KO cells” value is on record as “dose-dependent manner”; the “signal in MCF7KO cells compared with MCF7 cells” value is on record as “visibly weaker”. In [2] (setting [12]), this molecule yielded a Kd of 18.7 nM. This molecule also registered a Kd in data set [2] (setting [13]) of 13.8 nM. Also, the Ki in data set [3] stood at 51.1 ± 5.1 nM. For the same molecule, the “σ2 selectivity over σ1” value in data set [3] (from Ki values at σ1 and σ2) is approximately 10 fold. In data set [4], this molecule returned a quantum yield of 47.83%, a λem of 678 nm and a λex of 657 nm. Also, the “entry into living MCF7 cells” value in data set [5] is “rapid entry”. The stability result in data set [6] is given as “stability of the two compounds was demonstrated”. In addition, in [8], the “subcellular localization in living MCF7 cells” value is recorded as “mitochondrial localization” and the “mitochondrial localization upon co-treatment with nonfluorescent DTG” value is listed as “significantly reduced”. Moreover, in data set [9], the Ki was determined as 448 ± 80 nM. In addition, in [10], the cytotoxicity result was “neither 19 nor 29 was cytotoxic”. Also, the “subcellular localization versus σ2 receptor distribution (TMEM97ab)” value in data set [11] is “overlapped with the σ2 receptor distribution”.
